According to patent US8192962B2, “Processes for detecting toxic substances” (Daikin Industries, Ltd., priority 2001, dated 2012):

Tested on: Mitochondria-located protein genes
Test: DNA chip mRNA expression in yeast, mitochondria-located protein genes (Table 2)
Format: cell-based, Saccharomyces cerevisiae S288C
Conditions: cells incubated two hours with the chemical substance
In short: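 Ratios compare mRNA levels in stressed and control S. cerevisiae. Each toxicant was applied for two hours to log-phase cultures at 25° C. at a sub-lethal, growth-inhibiting level; fluorescent cDNA (Cy3- or Cy5-dUTP) was hybridized to a genome-wide yeast chip for over 12 h at 65° C.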

C=CC=O [(14), acrolein] was tested, and the “The level of expressed mRNA in the presence of chemical substance/The level of expressed mRNA in the absence of chemical substance” value (yeast gene YAL039C) was 1.2, the “The level of expressed mRNA in the presence of chemical substance/The level of expressed mRNA in the absence of chemical substance” value (yeast gene YBL022C) was 1.0 and the “The level of expressed mRNA in the presence of chemical substance/The level of expressed mRNA in the absence of chemical substance” value (yeast gene YBL030C) was 0.8. For the same compound, the “The level of expressed mRNA in the presence of chemical substance/The level of expressed mRNA in the absence of chemical substance” value (yeast gene YBL038W) was 2.3, the “The level of expressed mRNA in the presence of chemical substance/The level of expressed mRNA in the absence of chemical substance” value (yeast gene YBL099W) was 0.6 and the “The level of expressed mRNA in the presence of chemical substance/The level of expressed mRNA in the absence of chemical substance” value (yeast gene YBR003W) was 0.8. For the same compound, the “The level of expressed mRNA in the presence of chemical substance/The level of expressed mRNA in the absence of chemical substance” value (yeast gene YBR044C) was 0.9, the “The level of expressed mRNA in the presence of chemical substance/The level of expressed mRNA in the absence of chemical substance” value (yeast gene YBR091C) was 1.7 and the “The level of expressed mRNA in the presence of chemical substance/The level of expressed mRNA in the absence of chemical substance” value (yeast gene YBR122C) was 1.2. The “The level of expressed mRNA in the presence of chemical substance/The level of expressed mRNA in the absence of chemical substance” value (yeast gene YBR185C) was 1.7, the “The level of expressed mRNA in the presence of chemical substance/The level of expressed mRNA in the absence of chemical substance” value (yeast gene YBR221C) was 0.8 and the “The level of expressed mRNA in the presence of chemical substance/The level of expressed mRNA in the absence of chemical substance” value (yeast gene YBR251W) was 1.6. The “The level of expressed mRNA in the presence of chemical substance/The level of expressed mRNA in the absence of chemical substance” value (yeast gene YBR282W) was 1.4, the “The level of expressed mRNA in the presence of chemical substance/The level of expressed mRNA in the absence of chemical substance” value (yeast gene YCL057W) was 1.0 and the “The level of expressed mRNA in the presence of chemical substance/The level of expressed mRNA in the absence of chemical substance” value (yeast gene YCR046C) was 1.3. The “The level of expressed mRNA in the presence of chemical substance/The level of expressed mRNA in the absence of chemical substance” value (yeast gene YCR083W) was 2.4, the “The level of expressed mRNA in the presence of chemical substance/The level of expressed mRNA in the absence of chemical substance” value (yeast gene YDL067C) was 1.4 and the “The level of expressed mRNA in the presence of chemical substance/The level of expressed mRNA in the absence of chemical substance” value (yeast gene YDL181W) was 1.1. For the same compound, the “The level of expressed mRNA in the presence of chemical substance/The level of expressed mRNA in the absence of chemical substance” value (yeast gene YDL198C) was 1.7, the “The level of expressed mRNA in the presence of chemical substance/The level of expressed mRNA in the absence of chemical substance” value (yeast gene YDR079W) was 1.5 and the “The level of expressed mRNA in the presence of chemical substance/The level of expressed mRNA in the absence of chemical substance” value (yeast gene YDR178W) was 1.5. The “The level of expressed mRNA in the presence of chemical substance/The level of expressed mRNA in the absence of chemical substance” value (yeast gene YDR231C) was 1.5, the “The level of expressed mRNA in the presence of chemical substance/The level of expressed mRNA in the absence of chemical substance” value (yeast gene YDR258C) was 1.5 and the “The level of expressed mRNA in the presence of chemical substance/The level of expressed mRNA in the absence of chemical substance” value (yeast gene YDR298C) was 1.5. For the same compound, the “The level of expressed mRNA in the presence of chemical substance/The level of expressed mRNA in the absence of chemical substance” value (yeast gene YDR347W) was 1.5, the “The level of expressed mRNA in the presence of chemical substance/The level of expressed mRNA in the absence of chemical substance” value (yeast gene YDR377W) was 1.4 and the “The level of expressed mRNA in the presence of chemical substance/The level of expressed mRNA in the absence of chemical substance” value (yeast gene YDR529C) was 1.5. For the same compound, the “The level of expressed mRNA in the presence of chemical substance/The level of expressed mRNA in the absence of chemical substance” value (yeast gene YEL024W) was 1.1, the “The level of expressed mRNA in the presence of chemical substance/The level of expressed mRNA in the absence of chemical substance” value (yeast gene YEL039C) was 1.4 and the “The level of expressed mRNA in the presence of chemical substance/The level of expressed mRNA in the absence of chemical substance” value (yeast gene YER178W) was 0.9. For the same compound, the “The level of expressed mRNA in the presence of chemical substance/The level of expressed mRNA in the absence of chemical substance” value (yeast gene YFL016C) was 0.8, the “The level of expressed mRNA in the presence of chemical substance/The level of expressed mRNA in the absence of chemical substance” value (yeast gene YGL018C) was 1.2 and the “The level of expressed mRNA in the presence of chemical substance/The level of expressed mRNA in the absence of chemical substance” value (yeast gene YGL187C) was 0.9. The “The level of expressed mRNA in the presence of chemical substance/The level of expressed mRNA in the absence of chemical substance” value (yeast gene YGL191W) was 1.6, the “The level of expressed mRNA in the presence of chemical substance/The level of expressed mRNA in the absence of chemical substance” value (yeast gene YGR008C) was 1.3 and the “The level of expressed mRNA in the presence of chemical substance/The level of expressed mRNA in the absence of chemical substance” value (yeast gene YGR028W) was 1.2. For the same compound, the “The level of expressed mRNA in the presence of chemical substance/The level of expressed mRNA in the absence of chemical substance” value (yeast gene YGR062C) was 1.2, the “The level of expressed mRNA in the presence of chemical substance/The level of expressed mRNA in the absence of chemical substance” value (yeast gene YGR076C) was 2.3 and the “The level of expressed mRNA in the presence of chemical substance/The level of expressed mRNA in the absence of chemical substance” value (yeast gene YGR082W) was 0.9. The “The level of expressed mRNA in the presence of chemical substance/The level of expressed mRNA in the absence of chemical substance” value (yeast gene YGR174C) was 1.6, the “The level of expressed mRNA in the presence of chemical substance/The level of expressed mRNA in the absence of chemical substance” value (yeast gene YGR244C) was 1.2 and the “The level of expressed mRNA in the presence of chemical substance/The level of expressed mRNA in the absence of chemical substance” value (yeast gene YHR008C) was 1.6. The “The level of expressed mRNA in the presence of chemical substance/The level of expressed mRNA in the absence of chemical substance” value (yeast gene YIL155C) was 1.3, the “The level of expressed mRNA in the presence of chemical substance/The level of expressed mRNA in the absence of chemical substance” value (yeast gene YJL096W) was 2.1 and the “The level of expressed mRNA in the presence of chemical substance/The level of expressed mRNA in the absence of chemical substance” value (yeast gene YJL102W) was 1.5. The “The level of expressed mRNA in the presence of chemical substance/The level of expressed mRNA in the absence of chemical substance” value (yeast gene YJL133W) was 0.7, the “The level of expressed mRNA in the presence of chemical substance/The level of expressed mRNA in the absence of chemical substance” value (yeast gene YJL166W) was 1.9 and the “The level of expressed mRNA in the presence of chemical substance/The level of expressed mRNA in the absence of chemical substance” value (yeast gene YJL180C) was 1.4. The “The level of expressed mRNA in the presence of chemical substance/The level of expressed mRNA in the absence of chemical substance” value (yeast gene YJR045C) was 0.5 and the “The level of expressed mRNA in the presence of chemical substance/The level of expressed mRNA in the absence of chemical substance” value (yeast gene YJR077C) was 0.7.
